Several values for one entry are separate records, joined by “and”; a condition that tells them apart may be missing. Equal values may be shown once.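 Exposure lasted 48 hours, with cells grown in 96-well plates and compounds tested at five concentrations. GI50 is the concentration that inhibits growth by half. TGI marks complete inhibition of growth.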
Tests used:
Experiment in all cases: NCI anticancer screen, dose series, 48 h
KM20L2 colon = system: KM20L2 colon
NCI-H460 lung = system: NCI-H460 lung
OVCAR-5 ovarian = system: OVCAR-5 ovarian
MOLT-4 leukemia = system: MOLT-4 leukemia
SK-MEL-5 melanoma = system: SK-MEL-5 melanoma
HOP-92 NSCLC = system: HOP-92 NSCLC
A498 renal = system: A498 renal
NCI-H23 lung = system: NCI-H23 lung
CAKI-1 renal = system: CAKI-1 renal
PC-3 prostate = system: PC-3 prostate

Row | SMILES | TGI (KM20L2 colon) | TGI (NCI-H460 lung) | TGI (OVCAR-5 ovarian) | TGI (MOLT-4 leukemia) | TGI (SK-MEL-5 melanoma) | TGI (HOP-92 NSCLC) | TGI (A498 renal) | TGI (NCI-H23 lung) | TGI (CAKI-1 renal) | GI50 (KM20L2 colon) | GI50 (PC-3 prostate) | TGI (PC-3 prostate) | GI50 (HOP-92 NSCLC) | GI50 (A498 renal) | GI50 (MOLT-4 leukemia) | GI50 (NCI-H23 lung) | GI50 (NCI-H460 lung) | GI50 (OVCAR-5 ovarian) | GI50 (CAKI-1 renal) | GI50 (SK-MEL-5 melanoma)
1 | Cc1cc(-c2ccc(N=Nc3ccc4c(S(=O)(=O)O)cc(S(=O)(=O)O)c(N)c4c3O)c(C)c2)ccc1N=Nc1ccc2c(S(=O)(=O)O)cc(S(=O)(=O)O)c(N)c2c1O | > 100 µM | > 100 µM | > 100 µM | > 100 µM | > 100 µM | > 100 µM | > 100 µM | > 100 µM |  |  |  |  |  |  |  |  |  |  |  | 
2 | COc1ccc(/C(C=O)=C(\Cl)c2ccc(OC)c(OC)c2)cc1 | > 100 µM | > 100 µM | > 100 µM | > 100 µM | > 100 µM |  | > 100 µM | > 100 µM | > 100 µM |  |  |  |  |  |  |  |  |  |  | 
3 | CN(Cc1cnc2nc(N)nc(N)c2n1)c1ccc(C(=O)NC(CCC(=O)O)C(=O)O)c2ccccc12 (configuration not stated) |  | > 1000 µM | > 1000 µM | > 1000 µM | > 1000 µM | > 1000 µM | > 1000 µM | > 1000 µM | > 1000 µM | 0.00489 µM | 89.8 µM | > 1000 µM | > 1000 µM | 0.0152 µM |  |  |  |  |  | 
4 | Cc1ccc(S(=O)(=O)OCCN(CCOS(=O)(=O)c2ccc(C)cc2)c2ccc(C=O)cc2)cc1 |  | 48.6 µM | 64.8 µM | > 100 µM | > 100 µM | 75.3 µM | 61 µM | > 100 µM | 48.8 µM |  |  | > 100 µM |  |  |  |  |  |  |  | 
5 | O=c1c2ccc(Cl)cc2oc2c(CSc3ccccc3)cccc12 |  | 90.4 µM | > 100 µM | > 100 µM | > 92.1 µM | > 74.9 µM | > 79.1 µM | > 87.6 µM | > 79.7 µM |  |  | > 100 µM |  |  |  |  |  |  |  | 
6 | COc1cccc(/C=N/[N-]C(N)=O)c1[O-].[Cu+2].[OH3+] | 20.6 µM | 36 µM | 32.6 µM | 38.3 µM |  | 8.9 µM and 15.5 µM | 32.2 µM | 21.9 µM |  |  |  |  | 4.77 µM |  | 10.1 µM | 9.7 µM |  |  |  | 
7 | CCOC(=O)N1CCNCCN(C(=O)OCC)CCNCC1 |  | > 100 µM | > 100 µM | > 100 µM | > 100 µM | > 100 µM | > 100 µM | > 100 µM | > 100 µM |  |  | > 100 µM |  |  |  |  |  |  |  | 
8 | C/C(=N\NC(=S)NC(C)(C)C)c1nc2ncccc2[nH]1 |  | 55 µM | > 21.7 µM | 23.7 µM | 14.1 µM | 42.9 µM | > 100 µM | > 100 µM | 16.4 µM |  |  | > 100 µM |  |  |  |  |  |  |  | 
9 | CC(C)CNP(=O)(NCC(C)C)Oc1ccc(CC(NC(=O)OCc2ccccc2)C(=O)OCc2ccccc2)cc1 (configuration not stated) |  | 33.4 µM | > 100 µM | 41.1 µM | 45.8 µM | > 100 µM | 50.8 µM | 32.3 µM | > 100 µM |  |  | 30.8 µM |  |  |  |  |  |  |  | 
10 | C[n+]1c2ccccc2n2c3ccccc3c(NCCCn3ccnc3)c(C#N)c21 |  | 3.63 µM | 18.7 µM | > 35.7 µM | 13.1 µM | > 20.2 µM | 46.5 µM | 9.13 µM | > 43.1 µM |  |  | 9.62 µM |  |  |  |  |  |  |  | 
11 | CC(C)C(NCc1c2ccccc2[n+](C)c2ccccc12)C(=O)O (configuration not stated) | 7.33 µM | 29.1 µM | 33.2 µM | 7.86 µM | 20.8 µM | 12.5 µM | 24.6 µM | 27.2 µM | 12.1 µM |  |  |  |  |  |  |  |  |  |  | 
12 | N#Cc1cc(F)cc(Oc2ccc(S(=O)(=O)C(F)F)c3c2CC(F)(F)[C@H]3O)c1 |  | > 100 µM | > 100 µM | > 100 µM | 34.7 µM | 46.5 µM | 73.6 µM | > 100 µM | > 100 µM |  | 23.9 µM | > 100 µM | 16 µM | 20.6 µM | 27.6 µM | 27.6 µM | 42.1 µM | 51 µM | 27.7 µM | 17.6 µM
13 | NC(=O)CSc1nc2ccccc2c(=O)n1N |  | > 100 µM | > 100 µM | > 100 µM | > 100 µM | > 100 µM | > 100 µM | > 100 µM | > 100 µM |  |  | > 100 µM |  |  |  |  |  |  |  | 
14 | Cn1c2c(c3c(=O)[nH]ncc31)Cc1ccccc1-2 |  | 15.1 µM | > 100 µM | > 100 µM | 34.9 µM | 69.4 µM | 27.5 µM | > 100 µM | > 100 µM |  |  | > 100 µM |  |  |  |  |  |  |  | 
15 | Cc1cc(NC(=O)NC(=O)c2ccccc2NC(=O)CN(C)C)ccc1Oc1ncc(Br)cn1 | 34.7 µM | > 95 µM | > 100 µM | 59.8 µM | > 100 µM | > 100 µM | 17 µM | 65.9 µM | 64.3 µM |  |  | > 100 µM |  |  |  |  |  |  |  | 
16 | NC1CCC2(O)c3ccccc3C2C1 (configuration not stated) | > 100 µM | > 100 µM |  | > 100 µM | > 100 µM |  |  | > 100 µM |  |  |  |  |  |  |  |  |  |  |  | 
17 | O=C(O)[C@H]1NC[C@H]2C(Br)=NO[C@@H]12 |  | > 100 µM | > 100 µM | > 100 µM | > 100 µM | > 100 µM | > 100 µM | > 100 µM | > 100 µM |  |  | > 100 µM |  |  |  |  |  |  |  | 
18 | CC1(C)CCC[C@@]2(C)C1CC[C@@]1(CO)O[C@H](C3=CC(=O)OC3O)C[C@H]12 (some centres not stated) |  | 38.8 µM | 37.5 µM | 11.5 µM | 20.9 µM | 38.2 µM | 30.1 µM | 26.6 µM | 28.6 µM |  |  | 29.5 µM |  |  |  |  |  |  |  | 
19 | O=c1[nH]ncc2[nH]c3c(c12)CCc1ccccc1-3 |  | 77 µM | > 100 µM | 69.7 µM | 25 µM | 81.8 µM | 61.8 µM | > 100 µM | > 100 µM |  |  | > 100 µM |  |  |  |  |  |  |  | 
20 | Cc1n[nH]c(=O)n1-n1cccc1 |  | > 100 µM | > 100 µM | > 100 µM | > 100 µM | > 100 µM | > 100 µM | > 100 µM | > 100 µM |  |  | > 100 µM |  |  |  |  |  |  |  | 
21 | CN1C(c2ccccc2)CC(O)CC1c1ccccc1 (configuration not stated) | > 100 µM | > 100 µM | > 100 µM | > 100 µM | > 100 µM | > 100 µM | > 100 µM | > 100 µM | > 100 µM |  |  |  |  |  |  |  |  |  |  | 
22 | CC(=O)Oc1cc2c(cc1OCC(F)(F)F)[C@H]1CC[C@]3(C)[C@@H](OC(C)=O)CC[C@H]3[C@@H]1CC2=O |  | > 100 µM | 44.5 µM | 38.8 µM | 49.2 µM | 40.2 µM | 27 µM | > 68.8 µM | 47 µM |  |  | 37.6 µM |  |  |  |  |  |  |  | 

Reference: PubChem BioAssay (NCI)
